Reference: publication PMC9820592, “Novel Chiral Ru(II) Complexes as Potential c-myc G-quadruplex DNA Stabilizers Inducing DNA Damage to Suppress Triple-Negative Breast Cancer Progression” (International Journal of Molecular Sciences, 2022)

Columns and labels:
MDA-MB-231 cells [1] = test: Flow cytometry, cell cycle distribution; assay type: cell-based, human; settings: 72 h; for G0/G1: control 63.16%
Method: (§1) MDA-MB-231 cells were treated with different concentrations of the complexes (0, 10, 20, and 40 μM) for 72 h, then collected and stained with an Annexin V-FITC/PI Apoptosis Detection Kit I (BD, 556547). The MDA-MB-231 cells were fixed with 70% ethanol at 4 °C for 30 min, and then collected and stained with PI/RNase Staining Buffer (BD, 550825). The cells were analyzed by flow cytometry (Beckman, CytoFLEX). All experiments were repeated three times.

MDA-MB-231 cells [2] = test: FITC-gelatine invasion assay; assay type: cell-based, human; settings: 24 h
Method: An appropriate amount of FITC–gelatine glue was pipetted to cover the inner ring of the confocal cuvette, added to 0.5% glutaraldehyde for at least 30 min after solidification, and activated with 5 mg·mL^−1 sodium borohydride. Subsequently, 2 mL of cell suspension (5 × 10^4 cells) treated with different drug concentrations (0, 2.5, 5, and 10 µM) was added to each dish. The mixture was incubated at 37 °C for 24 h, and then the cells in each dish were fixed with 4% paraformaldehyde, incubated with phalloidin staining solution for 30 min and DAPI for 5 min, and imaged with a fluorescence microscope in the dark.

MDA-MB-231 cells [3] = test: MTT assay, MDA-MB-231 cells; assay type: cell-based, human; settings: 72 h, read-out: Inhibitory Effect (IC50/μM) MDA-MB-231
Method: (§2) Liver cancer HepG2 cells, lung cancer A549 cells, breast cancer MCF-7 and MDA-MB-231 cells, human nasopharyngeal carcinoma CNE-1 cells, and human immortalized keratinocyte HaCaT cells were seeded in 96-well plates (5 × 10^3 cells per well) and cultured at 37 °C and 5% CO2 for 24 h. Cells were treated with different concentrations of the complexes (0, 1.5625, 3.125, 6.25, 12.5, 25, 50, and 100 µM) for 72 h. After adding 20 µL MTT (5 mg/mL) solution to each well, the cells were incubated for 4 h, and then 150 µL DMSO was added to each well. The optical density of each well was detected by a microplate reader at a wavelength of 570 nm. The cell survival rate (%) = A(experimental group)/A(control group) × 100%, and the IC50 value was analyzed and calculated based on the survival rate.

CNE-1 cells = test: MTT assay, CNE-1 cells; assay type: cell-based, human; settings: 72 h, read-out: Inhibitory Effect (IC50/μM) CNE-1
Method: as §2

HepG2 cells = test: MTT assay, HepG2 cells; assay type: cell-based, human; settings: 72 h, read-out: Inhibitory Effect (IC50/μM) HepG2
Method: as §2

c-myc G-quadruplex DNA = test: FRET melting assay; assay type: binding, human; settings: free DNA Tm 59.5 °C
Method: Carboxy fluorescein (FAM) and 6-carboxytetramethyl rhodamine (TAMRA) double fluorescent-labeled c-myc G4 DNA (5′−FAM-TGAGGGTGGGAGGGGTAA-TAMRA−3′) were heated to 95 °C in Tris-HCl-KCl buffer (containing 10 mM Tris-HCl, 100 mM KCl, pH 7.4) for 5 min and slowly cooled to room temperature. To ds26, double-stranded DNA ([…]) is a competitive binder, research Λ/Δ−3 with c-myc G4 selectivity binding ability of DNA. A Bio-Radiq5 real-time PCR detection system was used to measure the fluorescence melting curve. Approximately 1 μM (5 μL) FPU22T was mixed with a series of 5 μL compound solutions of different concentrations, and 15 μLTris-HCl-KCl buffer was added to the PCR 8 tube to obtain a total volume of 25 μL. A real-time fluorescence quantitative PCR instrument was used, and incubation was performed at 30 °C for 30 min. The program temperature range was set to 30–95 °C at a temperature interval of 1 °C, and recording was performed after balancing for 30 s to detect the fluorescence value of FAM. The conditions of the reaction system were similar to those of the FRET melting point test except that different concentrations of ds26 were added.

MDA-MB-231 cells [4] = test: Wound-healing assay; assay type: cell-based, human
Method: MDA-MB-231 cells (1 × 10^5 cells/well) were inoculated in a 6-well cell culture plate marked on the back until a single layer of cells covered more than 90% of the bottom of the culture plate, and a 200 µL pipette was used to scratch the culture. Different concentrations of the complexes (0, 2.5, 5, and 10 µM) were applied for 72 h. Migrating cells in the same field of view were observed and recorded every 24 h, and the average cell migration rate was calculated in three fields for every group.

MDA-MB-231 cells [5] = test: Flow cytometry, apoptosis (Annexin V-FITC/PI); assay type: cell-based, human; settings: 72 h, control 2.77%
Method: as §1

MDA-MB-231 cells [6] = test: Immunofluorescence of paxillin and F-actin; assay type: cell-based, human; settings: 24 h
Method: MDA-MB-231 cells were inoculated in a 6-well plate containing a cover glass. On the second day, the cells were treated with different concentrations of the complex (0, 5, and 10 μM) for 24 h. The cells were fixed with 4% paraformaldehyde for 20 min, and then blocked with 5% BSA for 0.5 h at room temperature. The 1:500 anti-γH2AX antibody was diluted with 5% FBS and incubated for 1 h. The cells were incubated with lgG (H + L) for 0.5 h and treated with DAPI for 5 min. The cover glass was then transferred to a specified microscope slide and photographed with laser confocal microscopy. The antibodies used in immunofluorescence to determine invasion and metastasis were anti-paxillin antibody (ab32115), Fluor 488-conjugated IgG (H + L) (Proteintech), and rhodamine phalloidin (Amanita phalloidin, cytoskeleton).

MDA-MB-231 cells [7] = test: Zebrafish xenograft breast cancer model; assay type: in vivo; settings: 2.5, 5, and 10 μM, 72 h
Method: The zebrafish model of transplanted breast cancer was constructed in accordance with the methods in the literature. Juvenile 48 h old breast cancer model zebrafish were placed in 48-well plates (n = 10), and 0.2 mL aquaculture water without or with Δ−3 (0, 2.5, 5, and 10 μM) was added for culture. Images were captured every 24 h using a fluorescence microscope to study the inhibitory effect of Δ−3 on zebrafish with breast cancer. In addition, the mean number of sprout and mean length of sprout in subintestinal vessels (SIVs) were analyzed by ImageProPlus software. The ethical protocols for the in vivo research on zebrafish complied with relevant laws.

Δ-[Ru(bpy)2(3-NBEDPPZ)](ClO4)2 [Δ−3]
G2/M (MDA-MB-231 cells [1]; 10 μM): 4.07%
S (MDA-MB-231 cells [1]; 10 μM): 30.96%
SubG1 (MDA-MB-231 cells [1]; 10 μM): 5.40%
G0/G1 (MDA-MB-231 cells [1]; 10 μM): 64.97%
G2/M (MDA-MB-231 cells [1]; 20 μM): 3.13%
S (MDA-MB-231 cells [1]; 20 μM): 27.26%
SubG1 (MDA-MB-231 cells [1]; 20 μM): 4.45%
G0/G1 (MDA-MB-231 cells [1]; 20 μM): 69.61%
G2/M (MDA-MB-231 cells [1]; 40 μM): 2.93%
S (MDA-MB-231 cells [1]; 40 μM): 29.70%
SubG1 (MDA-MB-231 cells [1]; 40 μM): 14.97%
G0/G1 (MDA-MB-231 cells [1]; 40 μM): 67.37%
degraded areas (black holes) on FITC-gelatine (MDA-MB-231 cells [2]; 10 μM): did not result in a black hole
number of degraded areas on FITC-gelatine (MDA-MB-231 cells [2]; 2.5 and 5 μM, control six degraded areas): markedly reduced
IC50 (MDA-MB-231 cells [3]): 25.5 µM
IC50 (CNE-1 cells): 40.9 ± 0.53 µM
IC50 (HepG2 cells): 37.8 ± 0.6 µM
ΔTm (c-myc G-quadruplex DNA; complex 0.5 μM): approximately 3.5 °C
ΔTm (c-myc G-quadruplex DNA; complex 1.0 μM): ~7.2 °C
migration rate (wound healing) (MDA-MB-231 cells [4]; 10 μM, different treatment times): less than half that of the control
migration of cells (wound healing) (MDA-MB-231 cells [4]; 2.5 and 5 μM): inhibited inconspicuously
proportion of apoptotic cells (MDA-MB-231 cells [5]; 10 μM): 5.39%
proportion of apoptotic cells (MDA-MB-231 cells [5]; 20 μM): 7.95%
proportion of apoptotic cells (MDA-MB-231 cells [5]; 40 μM): 16.27%
focal adhesions (paxillin) and stress fibers (F-actin) (MDA-MB-231 cells [6]): the amount of paxillin decreased
number of MDA-MB-231 cells in zebrafish (MDA-MB-231 cells [7]): significantly lower than that of the control
